Measurements reported in patent publication US8148402B2, “Isoindolinone derivatives having inhibitory activity against T-type calcium channel and method for preparation thereof” (Korea Institute of Science and Technology, priority 2008, dated 2012).

Assays:
α1G T-type Ca2+ channels = biological target: T1, α1G T-type Ca2+ channels (Homo sapiens, UniProt O43497); assay: Assay for inhibitory activity against T-type calcium channel using FDSS6000; assay type: cell-based; settings: HEK293 cells expressing α1G and Kir2.1, KCl (70 mM) depolarization, fluo3/AM, read-out: FDSS (% Inhibition, at 10 μM)
T1 construct: expressed in transfected cells
T1 sequence (O43497 whole entry): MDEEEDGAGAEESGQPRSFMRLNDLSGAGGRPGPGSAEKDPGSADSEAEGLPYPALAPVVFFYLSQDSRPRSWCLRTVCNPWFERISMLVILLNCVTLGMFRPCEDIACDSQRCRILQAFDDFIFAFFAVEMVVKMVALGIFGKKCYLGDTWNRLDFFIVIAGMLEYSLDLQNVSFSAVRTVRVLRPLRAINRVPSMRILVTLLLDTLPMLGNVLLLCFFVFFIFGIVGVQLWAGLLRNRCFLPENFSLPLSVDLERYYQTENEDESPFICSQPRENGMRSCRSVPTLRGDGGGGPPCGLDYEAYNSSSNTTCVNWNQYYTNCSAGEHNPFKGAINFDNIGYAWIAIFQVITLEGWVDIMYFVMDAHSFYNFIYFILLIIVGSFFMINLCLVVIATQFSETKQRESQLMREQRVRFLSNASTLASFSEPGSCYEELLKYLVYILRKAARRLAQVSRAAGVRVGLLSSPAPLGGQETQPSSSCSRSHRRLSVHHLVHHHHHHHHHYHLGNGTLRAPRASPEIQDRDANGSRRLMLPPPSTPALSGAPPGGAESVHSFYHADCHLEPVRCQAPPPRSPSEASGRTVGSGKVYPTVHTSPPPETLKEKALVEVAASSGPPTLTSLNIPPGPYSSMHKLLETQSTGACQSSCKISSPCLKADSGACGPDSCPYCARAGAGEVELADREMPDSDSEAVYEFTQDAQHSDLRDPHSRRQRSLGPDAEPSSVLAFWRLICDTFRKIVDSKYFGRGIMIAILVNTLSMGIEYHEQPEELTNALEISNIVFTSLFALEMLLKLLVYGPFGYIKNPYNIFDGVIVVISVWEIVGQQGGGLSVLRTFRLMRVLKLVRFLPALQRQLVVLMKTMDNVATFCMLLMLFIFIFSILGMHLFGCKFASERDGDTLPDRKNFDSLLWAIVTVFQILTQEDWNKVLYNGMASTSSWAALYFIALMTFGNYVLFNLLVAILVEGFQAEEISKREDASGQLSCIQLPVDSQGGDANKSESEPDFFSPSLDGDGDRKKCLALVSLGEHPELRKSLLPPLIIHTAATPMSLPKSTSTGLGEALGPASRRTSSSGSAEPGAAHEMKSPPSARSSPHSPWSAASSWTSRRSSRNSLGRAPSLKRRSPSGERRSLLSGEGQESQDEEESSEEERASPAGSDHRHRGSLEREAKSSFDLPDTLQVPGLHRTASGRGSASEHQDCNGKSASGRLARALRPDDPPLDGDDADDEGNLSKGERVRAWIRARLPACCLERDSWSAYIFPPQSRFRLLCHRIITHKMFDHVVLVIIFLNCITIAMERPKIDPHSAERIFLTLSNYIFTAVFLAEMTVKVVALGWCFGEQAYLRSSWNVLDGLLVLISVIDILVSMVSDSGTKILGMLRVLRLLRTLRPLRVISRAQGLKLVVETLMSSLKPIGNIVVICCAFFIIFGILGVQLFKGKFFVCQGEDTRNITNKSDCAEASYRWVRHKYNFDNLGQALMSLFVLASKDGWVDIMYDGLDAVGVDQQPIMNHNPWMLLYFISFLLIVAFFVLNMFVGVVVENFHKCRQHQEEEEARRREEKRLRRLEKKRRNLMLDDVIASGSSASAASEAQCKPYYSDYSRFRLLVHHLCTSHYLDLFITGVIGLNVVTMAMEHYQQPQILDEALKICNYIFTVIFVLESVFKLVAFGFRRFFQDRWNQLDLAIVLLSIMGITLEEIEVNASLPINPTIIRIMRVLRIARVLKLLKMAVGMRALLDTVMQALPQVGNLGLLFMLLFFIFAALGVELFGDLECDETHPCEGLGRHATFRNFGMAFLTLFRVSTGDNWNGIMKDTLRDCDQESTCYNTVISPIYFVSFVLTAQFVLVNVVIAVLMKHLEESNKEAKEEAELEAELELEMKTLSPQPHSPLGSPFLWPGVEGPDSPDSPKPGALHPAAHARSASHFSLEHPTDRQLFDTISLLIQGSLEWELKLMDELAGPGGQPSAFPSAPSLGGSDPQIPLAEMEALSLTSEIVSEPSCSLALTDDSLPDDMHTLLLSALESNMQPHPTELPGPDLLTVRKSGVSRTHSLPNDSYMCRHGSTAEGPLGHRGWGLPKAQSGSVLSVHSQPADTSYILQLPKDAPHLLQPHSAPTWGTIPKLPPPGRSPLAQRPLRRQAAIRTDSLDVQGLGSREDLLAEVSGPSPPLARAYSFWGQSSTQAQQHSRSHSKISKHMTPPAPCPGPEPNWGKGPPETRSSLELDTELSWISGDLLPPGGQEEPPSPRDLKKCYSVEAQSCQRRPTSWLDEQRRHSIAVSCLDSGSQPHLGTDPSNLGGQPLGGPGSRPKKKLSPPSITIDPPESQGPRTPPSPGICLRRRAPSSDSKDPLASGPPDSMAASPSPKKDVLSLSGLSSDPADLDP
Description: Meanwhile, the novel compounds of Chemical Formula 1 in accordance with the present invention were assayed for antagonistic activity against T-type calcium channels. In this regard, an examination was made of the % inhibition of the compounds against T-type calcium channel using FDSS6000.
In the present invention, in order to search for an efficient inhibitor against T-type calcium channel, a primary assay for T-type calcium channel inhibiting activity was conducted by a high-efficient assay using FDSS6000, wherein mammal HEK293 cell lines (originated from human kidney carcinoma cells), which specifically express alG of T-type calcium channel, were used for the primary assay.
HEK293 cells which stably express both α1G and Kir2.1 subunits were grown in Dulbecoo's modified Eagle's medium supplemented with 10% (v/v) fetal bovine serum, penicillin (100 U/ml), streptomycin (100 µg/ml), geneticin (500 µg/ml), and puromycin (1 μg/ml) at 37° C. in a humid atmosphere of 5% CO2 and 95% air. Cells were seeded into 96-well black wall clear bottom plates at a density of 40,000 cells/well and were used on the next day for high-throughput screening (HTS) FDSS6000 assay. For FDSS6000 assay, cells were incubated for 60 min at room temperature with 5 µM fluo3/AM and 0.001% Pluronic F-127 in a HEPES-buffered solution composed of (in MM): 115 NaCl, 5.4 KCl, 0.8 MgCl2, 1.8 CaCl2, 20 HEPES, 13.8 glucose (pH 7.4). During fluorescence-based FDSS6000 assay, […]1G T-type Ca^2+ channels were activated using a high concentration of KCl (70 mM) in 10 mM CaCl2 contained HEPES-buffered solution, and the increase in [Ca^2+]i by KCl-induced depolarization was detected. All data were collected and analyzed using FDSS6000 and related software (Hamamatsu, Japan).

T-type calcium channel = T-type calcium channel (Homo sapiens, UniProt O43497); assay: Measurement of ion currents through T-type calcium channel using automated patch clamp; assay type: cell-based; settings: whole-cell automated patch clamp, HEK-293 cells expressing T-type calcium channel, 10 mM Ba2+
Chain of T-type calcium channel (O43497 whole entry): as above
From the text: The selected compounds were used in a second assay for T-type calcium channel inhibiting activity using electrophysiological whole cell patch clamp method, wherein mammal HEK293 cell lines, which are originated from human kidney carcinoma cells and which specifically express alG of T-type calcium channel, were used for the second assay. As a reference drug, mibefradil which had been developed as T-type calcium channel inhibitor was used.
Stably expressed T-type calcium channels in Human Embryonic Kidney (HEK)-293 cell were provided by Korea Research Institute of Bioscience and Biotechnology (KRIBB) and hERG (human ether-a-go-go-related gene) channels induced by a Tet-expression system expressed in HEK-293 cell were purchased from Iongate (Frankfurt, Germany). In a humidified 5% CO2 incubator at 37° C., T-type calcium channel expressed cells were maintained in Dulbecco's modified Eagle's medium (DMEM) including 10% Fetal Bovine Serum (FBS), and hERG channel expressed cells were maintained in MEM with 10% FBS. For hERG channel expression, the Tet-expression system was activated by adding 1 μg/ml Doxycyclin into the hERG channel cell growth medium 20 h prior to use. Cell lines were subcultured once in three days and used for patch clamp recordings at final confluence of 50-80%. To harvest cells, cell detacher, Trypsin-EDTA (0.25×) was added into the dish and single cells were made using a pipette. Trypsin was removed by centrifugation at 1100 rpm for 3 min. Cells were automatically suspended after adding external cellular solution at room temperature.
The composition of solution for measuring T-type calcium channel and hERG channel activity is following: 140 mM NaCl, 2 mM CaCl2, 4 mM KCl, 1 mM MgCl2, 5 mM D-glucose and 10 mM HEPES (pH 7.4) for external cellular solution, 50 mM KCl, 10 mM NaCl, 60 mM KF, 2 mM MgCl2, 10 mM HEPES and 20 mM EGTA (pH 7.2) for internal cellular solution and 80 mM NaCl, 35 mM CaCl2, 3 mM KCl, 10 mM MgCl2 and 10 mM HEPES (pH 7.4) for seal enhancer. T-type calcium channel activity was recorded after adding 10 mM Ba^2+ into external solution. Each compound dissolved in 100% DMSO with a final concentration of 100 mM was diluted to 10 nM˜100 μM range in external solution with 10 mM Ba^2+ for T-type calcium channel and no Ba^2+ for hERG channel recordings.
In all experiments, auto patch clamp machine NPC©-16 Patchliner (Nanion Technologies, Germany) and whole-cell patch clamp technique were used. Channel current was recorded by EPC10 (HEKA, Germany) amplifier. Cell suspension and patch solutions were automatically divided into the chip (NPC-16 Chip, Nanion Technologies, Germany). Inward current was recorded at −20 mV depolarization potential at intervals of 10 s during 300 ms with −100 mV holding potential for T-type calcium channels, and tail current was recorded at −50 mV at intervals of 10 s during 500 ms after 20 mV depolarization during 200 ms with −80 mV holding potential for hERG channels. Compounds at each concentration were applied to the cell during 20 s. Inhibition curves and IC50 values were automatically calculated from peak currents using data analysis program, IGOR Pro (WaveMetrics, USA).

| Structure (SMILES) | inhibition at 10 µM (α1G T-type Ca2+ channels) [%] | IC50 (T-type calcium channel) [nM] |
| --- | --- | --- |
| CC(C)C1CCCCN1CCCNC(=O)c1ccc2c(c1)C(=O)N(Cc1ccc(Br)cc1)C2 (centres unmarked) [Compound 43, 2-(4-bromobenzyl)-N-(3-(2-isopropylpiperidin-1-yl)propyl)-3-oxoisoindoline-5-carboxamide] | 51.7 | 5100 |
| O=C(NCCCN1CCCCC1)c1ccc2c(c1)C(=O)N(Cc1ccc(Br)cc1)C2 [Compound 7, 2-(4-bromobenzyl)-3-oxo-N-(3-(piperidin-1-yl)propyl)isoindoline-5-carboxamide] | 33.4 | 9770 |
| CCCCC1CCCCN1CCCNC(=O)c1ccc2c(c1)C(=O)N(Cc1cccc(F)c1)C2 (centres unmarked) [Compound 47, N-(3-(2-butylpiperidin-1-yl)propyl)-2-(3-fluorobenzyl)-3-oxoisoindoline-5-carboxamide] | 49 | 2300 |
| CCCC1CCCCN1CCCNC(=O)c1ccc2c(c1)C(=O)N(Cc1ccc(I)cc1)C2 (centres unmarked) [Compound 36, 2-(4-iodobenzyl)-3-oxo-N-(3-(2-propylpiperidin-1-yl)propyl)isoindoline-5-carboxamide] | 53.8 | 6870 |
| O=C(NCCCN1CCCCC1c1ccccc1)c1ccc2c(c1)C(=O)N(Cc1cccc(Br)c1)C2 (centres unmarked) [Compound 60, 2-(3-bromobenzyl)-3-oxo-N-(3-(2-phenylpiperidin-1-yl)propyl)isoindoline-5-carboxamide] | 55.2 | 1540 |
| CCCCC1CCCCN1CCCNC(=O)c1ccc2c(c1)C(=O)N(Cc1ccc(F)cc1)C2 (centres unmarked) [Compound 48, N-(3-(2-butylpiperidin-1-yl)propyl)-2-(4-fluorobenzyl)-3-oxoisoindoline-5-carboxamide] | 62.1 | 1920 |
| CC(C)C1CCCCN1CCCNC(=O)c1ccc2c(c1)C(=O)N(Cc1cccc(I)c1)C2 (centres unmarked) [Compound 44, 2-(3-iodobenzyl)-N-(3-(2-isopropylpiperidin-1-yl)propyl)-3-oxoisoindoline-5-carboxamide] | 60.7 | 4360 |
| CC(C)C1CCCCN1CCCNC(=O)c1ccc2c(c1)C(=O)N(Cc1cccc(Cl)c1)C2 (centres unmarked) [Compound 40, 2-(3-chlorobenzyl)-N-(3-(2-isopropylpiperidin-1-yl)propyl)-3-oxoisoindoline-5-carboxamide] | 56.7 | 1010 |

Further molecules by falling IC50 (T-type calcium channel), results first:

| inhibition at 10 µM (α1G T-type Ca2+ channels) [%] | IC50 (T-type calcium channel) [nM] | Structure (SMILES) |
| --- | --- | --- |
| 22 | 9570 | O=C(NCCCN1CCCCC1)c1ccc2c(c1)C(=O)N(Cc1ccccc1)C2 [Compound 1, 2-benzyl-3-oxo-N-(3-(piperidin-1-yl)propyl)isoindoline-5-carboxamide] |
| 44.4 | 4150 | CC(C)C1CCCCN1CCCNC(=O)c1ccc2c(c1)C(=O)N(Cc1cccc(Br)c1)C2 (centres unmarked) [Compound 42, 2-(3-bromobenzyl)-N-(3-(2-isopropylpiperidin-1-yl)propyl)-3-oxoisoindoline-5-carboxamide] |
| 46 | 4070 | CCC1CCCCN1CCCNC(=O)c1ccc2c(c1)C(=O)N(Cc1cccc(Br)c1)C2 (centres unmarked) [Compound 24, 2-(3-bromobenzyl)-N-(3-(2-ethylpiperidin-1-yl)propyl)-3-oxoisoindoline-5-carboxamide] |
| 55.3 | 2650 | CCCCC1CCCCN1CCCNC(=O)c1ccc2c(c1)C(=O)N(Cc1ccccc1)C2 (centres unmarked) [Compound 46, 2-benzyl-N-(3-(2-butylpiperidin-1-yl)propyl)-3-oxoisoindoline-5-carboxamide] |
| 60.8 | 1740 | CCCC1CCCCN1CCCNC(=O)c1ccc2c(c1)C(=O)N(Cc1cccc(Br)c1)C2 (centres unmarked) [Compound 33, 2-(3-bromobenzyl)-3-oxo-N-(3-(2-propylpiperidin-1-yl)propyl)isoindoline-5-carboxamide] |
| 45.6 | 1070 | O=C(NCCCN1CCCCC1c1ccccc1)c1ccc2c(c1)C(=O)N(Cc1ccc(Br)cc1)C2 (centres unmarked) [Compound 61, 2-(4-bromobenzyl)-3-oxo-N-(3-(2-phenylpiperidin-1-yl)propyl)isoindoline-5-carboxamide] |
| 58.9 | 1070 | CC(C)C1CCCCN1CCCNC(=O)c1ccc2c(c1)C(=O)N(Cc1ccc(I)cc1)C2 (centres unmarked) [Compound 45, 2-(4-iodobenzyl)-N-(3-(2-isopropylpiperidin-1-yl)propyl)-3-oxoisoindoline-5-carboxamide] |
| 71.8 | 620 | CCCCC1CCCCN1CCCNC(=O)c1ccc2c(c1)C(=O)N(Cc1cccc(Cl)c1)C2 (centres unmarked) [Compound 49, N-(3-(2-butylpiperidin-1-yl)propyl)-2-(3-chlorobenzyl)-3-oxoisoindoline-5-carboxamide] |
